Measurements taken from ChEMBL document CHEMBL5303304, “EUbOPEN Chemogenomics Library - IncuCyte” (2023).

How the values were obtained:
Assay type in all cases: toxicity, cell-based
HEK-293T = assay: Incucyte cell viability with HEK293T; details: human, 10 µM, compound concentration 10 uM
U2OS = assay: Incucyte cell viability with U2OS; details: human, 10 µM, compound concentration 10 uM
Fibroblast = assay: Incucyte cell viability with human fibroblast; details: 10 µM, compound concentration 10 uM
Note: unitless GR value; below 1 slowed growth and below 0 cell loss.

SMILES | Growth Rate (HEK-293T; 0 h, replicate number 2) | Growth Rate (U2OS; 12 h, replicate number 2) | Growth Rate (U2OS; 18 h, replicate number 2) | Growth Rate (U2OS; 24 h, replicate number 2) | Growth Rate (HEK-293T; 0 h, replicate number 1) | Growth Rate (U2OS; 0 h, replicate number 1) | Growth Rate (U2OS; 0 h, replicate number 2) | Growth Rate (U2OS; 6 h, replicate number 2) | Growth Rate (Fibroblast; 0 h, replicate number 2) | Growth Rate (Fibroblast; 6 h, replicate number 2) | Growth Rate (Fibroblast; 12 h, replicate number 2) | Growth Rate (Fibroblast; 18 h, replicate number 1) | Growth Rate (Fibroblast; 18 h, replicate number 2) | Growth Rate (Fibroblast; 24 h, replicate number 1) | Growth Rate (U2OS; 24 h, replicate number 1) | Growth Rate (U2OS; 6 h, replicate number 1) | Growth Rate (U2OS; 12 h, replicate number 1) | Growth Rate (Fibroblast; 6 h, replicate number 1) | other results
CNc1oc(-c2cccc3ccccc23)nc1C#N | -0.92 | 0.93 | 0.92 | 0.99 | – | – | – | – | – | – | – | – | – | – | – | – | – | – | –
COc1cc(Nc2cnc(C#N)c(O[C@H](C)CN(C)C)n2)ncc1-c1cnn(C)c1 | -0.51 | 0.82 | 0.67 | 0.43 | -1 | -1 | 0.66 | 0.42 | – | – | – | – | – | – | – | – | – | – | Growth Rate (HEK-293T; 6 h, replicate number 1): 0.63; Growth Rate (HEK-293T; 6 h, replicate number 2): -0.18; Growth Rate (HEK-293T; 12 h, replicate number 1): -0.1; Growth Rate (HEK-293T; 12 h, replicate number 2): -0.4; Growth Rate (HEK-293T; 18 h, replicate number 1): -0.17; Growth Rate (HEK-293T; 18 h, replicate number 2): -0.32; Growth Rate (HEK-293T; 24 h, replicate number 1): -0.06; Growth Rate (HEK-293T; 24 h, replicate number 2): -0.22
O=C(O)c1cccc(C2=C(c3cc(Cl)ccc3OCc3ccc(F)cc3F)CCC2)n1 | – | 1 | – | – | 0.79 | – | – | – | – | – | – | – | – | – | – | – | – | – | –
CC(C)N(CCCCOCC(=O)O)c1cnc(-c2ccccc2)c(-c2ccccc2)n1 | – | – | – | 0.99 | – | – | – | – | -0.09 | – | – | – | – | – | – | – | – | – | –
N#C/C(=C\c1ccc(O)c(O)c1)C(=O)OCCc1cccs1 | – | 0.63 | 0.94 | 0.93 | – | – | 0.41 | – | – | -0.28 | 0.78 | 1 | 0.58 | 0.86 | 0.8 | – | – | – | Growth Rate (Fibroblast; 24 h, replicate number 2): 0.54
CC(C)(O)[C@H](F)CN1Cc2cc(NC(=O)c3cnn4cccnc34)c(N3CCOCC3)cc2C1=O | 0.15 | 0.95 | 0.95 | 0.93 | – | -0.84 | – | – | – | – | – | – | – | – | – | – | – | – | Growth Rate (HEK-293T; 6 h, replicate number 1): 0.89; Growth Rate (HEK-293T; 6 h, replicate number 2): 0.72; Growth Rate (HEK-293T; 12 h, replicate number 1): 1; Growth Rate (HEK-293T; 12 h, replicate number 2): 0.86; Growth Rate (HEK-293T; 18 h, replicate number 2): 0.82; Growth Rate (HEK-293T; 24 h, replicate number 1): 0.96; Growth Rate (HEK-293T; 24 h, replicate number 2): 0.85
COc1cc(-c2cncc(-c3ccc(N4CCN(C(C)C)CC4)cc3)c2C)cc(F)c1C(N)=O | – | – | – | – | -0.67 | – | – | – | -0.84 | – | – | – | – | – | – | – | – | – | –
Cl.Cl.Nc1nccc(-c2c(-c3ccc(F)cc3)ncn2C2CCCCC2)n1 | 0.73 | – | 0.84 | 0.81 | – | – | – | – | – | – | – | – | – | – | 0.95 | 0.19 | 0.8 | – | Growth Rate (HEK-293T; 6 h, replicate number 1): 0.63; Growth Rate (HEK-293T; 6 h, replicate number 2): 0.51; Growth Rate (HEK-293T; 12 h, replicate number 1): 0.99; Growth Rate (HEK-293T; 12 h, replicate number 2): 0.49; Growth Rate (HEK-293T; 18 h, replicate number 1): 0.99; Growth Rate (HEK-293T; 18 h, replicate number 2): 0.44; Growth Rate (HEK-293T; 24 h, replicate number 1): 0.95; Growth Rate (HEK-293T; 24 h, replicate number 2): 0.51; Growth Rate (U2OS; 18 h, replicate number 1): 0.93
CNc1ncc2cc(-c3ccc(-c4ncccc4F)cc3Cl)c(=O)n(C[C@H]3OC[C@H](N)CO3)c2n1 | – | – | – | – | -0.97 | – | – | – | – | -0.26 | -0.06 | 0.78 | 0.35 | 0.8 | – | – | – | 0.02 | Growth Rate (Fibroblast; 12 h, replicate number 1): 0.37; Growth Rate (Fibroblast; 24 h, replicate number 2): 0.66
Cc1cc(Cn2c(N3CC4(CNC4)C3)nc3cc(Cl)cc(N4CCN(C)CC4)c32)cc(C)c1F | – | 0.82 | 0.98 | 0.96 | – | -0.3 | -0.61 | 0.64 | -0.8 | -0.44 | 0.21 | 0 | 0.16 | 0.06 | 0.83 | 0.43 | 0.79 | -0.09 | Growth Rate (Fibroblast; 0 h, replicate number 1): -1; Growth Rate (Fibroblast; 12 h, replicate number 1): -0.09; Growth Rate (Fibroblast; 24 h, replicate number 2): 0.36; Growth Rate (U2OS; 18 h, replicate number 1): 0.95
CCN1C(=O)C(c2cccc(C(=O)O)c2)C(=O)N(c2ccccc2)c2cc(C(F)(F)F)ccc21 (configuration not stated) | – | 0.94 | 0.95 | – | – | 0.96 | 0.93 | 0.97 | 0.93 | -0.94 | 0.41 | 0.92 | 0.96 | 0.95 | 0.88 | 0.49 | 0.8 | 0.7 | Growth Rate (Fibroblast; 0 h, replicate number 1): -1; Growth Rate (Fibroblast; 12 h, replicate number 1): 0.85
COc1cc(C)c(S(=O)(=O)N(C)CCC(=O)N[C@H]2CC[C@@H](N3CCC4CN(C)CC4C3)CC2)c(C)c1.Cl.Cl (some centres not stated) | – | 0.88 | 0.99 | – | – | – | – | 0.87 | -0.7 | – | – | – | – | – | – | 0.78 | 0.97 | 0.39 | –
